Test results published in patent US20220168271A1, “COMPOSITIONS AND METHODS FOR INCREASING T CELL FUNCTION” (SOCIETE DES PRODUITS NESTLE S.A., priority 2019, published 2022).

Assays:
OTI-1 CD8+ T-cells [1] = assay: CD62L surface expression by FACS on in vitro stimulated CD8+ T cells; format: cell-based, mouse; details: FACS median fluorescence, day 7; negative control = effector T cells expanded with IL-2/7; concentrations as in the 1st table/the 2nd table
Description: (§1) Unless specified otherwise, cell media were supplemented with agents or combinations of agents at the following concentrations:
An OTI-1 mouse was sacrifice and dissected to extract the spleen. Under sterile conditions, the spleen was disrupted over a […] filter. PBS was then added to the disrupted spleen to a volume of 30 mL, and the mixture was centrifuged (1500 rpm, 5 min at room temperature).
The PBS supernatant was discarded and the cells resuspended in 2 mL of 1× red blood cell lysis buffer for 3 min. 15 mL of PBS was then added to wash the cells, and the mixture was centrifuged (1500 rpm, 5 min at room temperature).
The PBS supernatant was discarded and the cells resuspended in fresh RPMI completed media (+10% FBS, Sodium Pyruvate) before counting.
(§2) 750 μL of agent/agent combination supplementation solutions (described above) were added to corresponding wells of a flat bottom 24-well plate.
(§3) The total splenic cells were then resuspended in RPMI completed media (+10% FBS, Sodium Pyruvate), including IL-2 (final concentration 100 U/mL) and SIINFEKL peptide (final concentration 250 nM) at 1.6×10^6 cells/mL.
750 μL of cell solution (2×) were added to each well. Thus, the cell count was 1200000 cells per well at 0.8×10^6 cells/mL.
The cells were then incubated at 37° C. for 3 days.
The specific activation of OTI-1 T-cells is due to the SIINFEKL peptide. Therefore after 3 days, mostly (if not only) CD8 T-cells will have proliferated and show an activation profile.
(§4) The cells from each condition (after day 3) were counted and resuspended in RPMI completed media (+10% FBS, Sodium Pyruvate) at 1.2×10^6 cells/mL.
(§5) The cells were then distributed in 96-well or 12-well plates at 5×10^4 cells/well (96-well plate) and 6×10^6 cells/well (12-well plate).
(§6) Agent/agent combination supplementation solutions (described above) or complete media were added to corresponding wells in addition to either: (a) IL-2 (at a final concentration of 100 U/mL) and IL-7 (at a final concentration of 10 U/mL) (to keep the effector phenotype); or (b) IL-15 (at a final concentration of 10 U/mL) (to induce differentiation into memory precursor effector cells (MPECs) as a positive control.
Extra media was added at day 5 to the wells with fresh agents and cytokines.
(§7) The cells were then incubated at 37° C. for 4 days before proceeding with FACS staining or Seahorse analysis.
Cells were harvest from the 96-well plates and centrifuged (2000 rpm, 2 min at 4° C.) before washing with 150 μL of PBS.
(§8) The cells were then resuspended in 60 μL of LiveDead dye solution (1:500 dilution in PBS) and incubated for 15 min on ice. Cells were then centrifuged (2000 rpm, 2 min at 4° C.) before washing with 150 μL of PBS and then 200 μL of FACS buffer (PBS+2% FBS).
Subsequently, the cells were resuspended in 60 μL of stain solution (FACS buffer+antibodies specific for CD45.1, CD62L and CD8), and incubated for 15 min on ice.
(§9) Cells were then centrifuged (2000 rpm, 2 min at 4° C.) before washing with 150 μL of FACS buffer, and then resuspended in 150 μL of FACS buffer before analysis by FACS (BD™ LSR II).
After acquisition, FACS data were analysed using the FlowJo treestar software and median fluorescence for CD62L was extracted.
(§10) To study the enhancement of T cell immune fitness the in vitro studies focused on the development of T cells with long term and resting phenotypes, which could be equated to the development of memory cell characteristics. The metabolic intervention outcomes were evaluated using: • Cell phenotype: assessment by FACS of the cell surface expression of the specific marker CD62L, which is higher on resting T-cells. • Cell function: assessment using metabolic potential measurement (as per the Spare Respiratory Capacity) by means of an assay assessing cell respiration upon mitochondrial stress (Seahorse technology), which is higher in memory, quiescent cells.

OTI-1 CD8+ T-cells [2] = assay: Seahorse mitochondrial stress analysis, spare respiratory capacity (metabolic potential); format: cell-based, mouse; details: day 7, negative control = effector T cells expanded with IL-2/7, concentrations as in the 1st table/the 2nd table
Description: as §1, §2, §3, §4, §5, §6, §7
Cells were harvested from 12-well or 6-well plates.
A probe plate containing cartridge pores (Seahorse XFe96 FluxPak) was prepared by adding 200 μL of Seahorse XF Calibrant solution (Agilent) to each well and incubating overnight at 37° C. (no CO2).
Residues were removed by transferring the cells to a 15 mL tube and a Pasteur pipette was added. 2 mL of Lympholyte M was slowly added to the Pasteur pipette, and the Ficoll was allowed to slowly release below the cells before the pipette was removed from the tube. The tube was the centrifuged at 1500 rpm, 10 min at room temperature without braking.
5 mL of fresh uncompleted RPMI was added to the cells, and the mixture was centrifuged at 1500 rpm, 5 min at room temperature. The cells were then resuspended in 1 mL of RPMI completed media (+10% FBS, Sodium Pyruvate).
Subsequently, the cells were counted before being resuspended at 5×10^6 cells/mL in completed XF Medium (non-buffered RPMI, with glucose (25 mM), L-glutamine (2 mM) and sodium pyruvate (1 mM), pH 7.3).
40 μL of cells were then distributed in corresponding pre-determined Poly-D-Lysine coated wells of a cell culture plate (V3-PS TC-Treated) and the plate was centrifuged at 400 g, 5 min.
140 μL of XF Medium was carefully added to each well, and the plate was incubated at 37° C., 30-60 min (no CO2). During this time modulator solutions (Oligomycin 10 μM; FCCP 15 μM; Rotenone/Antimycin A 1 μM/1 μg/mL) were loaded into the previously prepared cartridge pores: 20 μL of Oligomycin in pore A; 22 μL of FCCP in pore B; and 24 μL of Rotenone/Antimycin A in pore C) and the cartridge was incubated at 37° C. (no CO2).
Mitochondrial stress analysis was then carried out using the Wave software following the manufacturer instructions.
After data acquisition, oxygen consumption rates were extracted and spare respiratory capacity calculated following the manufacturer's instructions.
as §10

OTI-1 T cells = assay: Adoptive transfer of pre-treated OTI-1 T cells into Listeria monocytogenes (Lm-OVA) infected mice, FACS of blood and spleen after 35 days; format: in vivo, C57BL/6 mice; details: for cell frequency: percentage of transferred cells (CD45.1) from total CD8 positive T cells, compared with control / percentage of memory cells (CD27 and CD43 positive) from CD8 positive transferred cells / percentage of MPECs (CD127 positive, KLRG1 negative) from CD8 positive transferred cells: 35 days of infection; for frequency levels of transferred cells compared with positive control (Phenformin treatment): Phenformin 100 μM pre-treatment
Description: The metabolic intervention consisted of cell medium supplementation as described above for the in vitro procedure) using the following agent concentrations, before adoptive transfer of the cells into infected mice.
For the in vivo assessment, the positive control was obtained by pre-treating the OTI-1 CD8 T-cells in vitro with Phenformin (100 μM) following the same procedure as for the other agents). Phenformin is known to induce a metabolic switch in cells essential for the development of long-term T-cells.
C57BL/6 mice were injected intravenously with 2000 CFU of Listeria monocytogenes bacteria expressing OVA at a concentration of 1×10^4 CFU/mL (Lm-OVA; harvested in Brain Heart Infusion media without antibiotics until OD reached 0.3) in 200 μL of PBS to induce a Listeria monocytogenes infection.
Treated OTI-1 T-cells (specific for OVA recognition) were provided from day 7 of the procedure described above in Example 1 at a concentration of 1×10^5 cells/mL in PBS. Residues were cleaned from the T cells using Lympholyte M as described above.
Adoptive transfer of OTI-1 T cells was carried out by intravenously injecting each mouse with 1×10^4 cells in 200 μL of PBS.
After 35 days, the mice were sacrificed to collect blood and spleens for further surface and intracellular FACs analysis.
Harvested blood or total spleen cells were subjected to red blood cell lysis in a 96-well plate and then centrifuged (2000 rpm, 2 min at 4° C.) before washing with 150 μL of PBS.
as §8
Subsequently, the cells were resuspended in 60 μL of stain solution (FACS buffer+antibodies specific for CD45.1, CD62L, CD8, CD127, KLRG1, CD27, CD43 and CXCR3), and incubated for 15 min on ice.
as §9
After acquisition, FACS data were analysed using the FlowJo treestar software and percentages of gated cells for targeted markers were extracted. […]
The cells were the centrifuged (2000 rpm, 2 min at 4° C.) and washed with 150 μL of 1× Permeabilization buffer (Intracellular staining kit (BD™)), and then centrifuged (2000 rpm, 2 min at 4° C.) and washed with 200 μL of FACS buffer. 200 μL of FACS buffer was then added and the mixture stored at 4° C. till analysis by FACS (BD™ LSR II) either the same or following day.
After acquisition, data were analysed using the FlowJo treestar software and percentages of gated cells for the targeted markers were extracted.
To study the enhancement of T cell immune fitness the in vivo studies focused on the development of T cells with long term and resting phenotypes after treatment and adoptive transfer into mice simultaneously infected with Listeria monocytogenes. The metabolic intervention outcomes were evaluated after 35 days of infection using: • Cell frequency: assessment by FACS of the percentage of transferred cells (CD45.1) from total CD8 positive T cells in the mice blood and spleen. • Cell phenotype: assessment by FACS of the percentage of cells from the blood and spleen that developed memory patterns from total CD8 positive transferred cells (CD45.1): either memory precursor effector cells (MPECs; both positive for CD127 and negative for KLRG1 markers) or full memory cells (positive for both CD27 and CD43 markers). • Cell function: assessment by FACS of the percentage of transferred cells (CD45.1) from total CD8 positive T cells in the mice spleen expressing the functional surface marker CXCR3 and able to produce both IFNγ and TNFα cytokines by intracellular staining.

| Compound | CD62L surface expression level compared with negative control (OTI-1 CD8+ T-cells [1]) | metabolic potential (spare respiratory capacity) compared with negative control (OTI-1 CD8+ T-cells [2]) | cell frequency: percentage of transferred cells (CD45.1) from total CD8 positive T cells, compared with control (OTI-1 T cells; blood) | cell frequency: percentage of transferred cells (CD45.1) from total CD8 positive T cells, compared with control (OTI-1 T cells; spleen) | percentage of memory cells (CD27 and CD43 positive) from CD8 positive transferred cells (OTI-1 T cells; spleen) | percentage of MPECs (CD127 positive, KLRG1 negative) from CD8 positive transferred cells (OTI-1 T cells; blood) | percentage of memory cells (CD27 and CD43 positive) from CD8 positive transferred cells (OTI-1 T cells; blood) | frequency levels of transferred cells compared with positive control (Phenformin treatment) (OTI-1 T cells; blood) | percentage of MPECs (CD127 positive, KLRG1 negative) from CD8 positive transferred cells (OTI-1 T cells; spleen) | frequency levels of transferred cells compared with positive control (Phenformin treatment) (OTI-1 T cells; spleen) |
| --- | --- | --- | --- | --- | --- | --- | --- | --- | --- | --- |
| N=C(N)NCCC[C@H](N)C(=O)O [Arg, Arginine] | higher | higher | higher | higher | higher |  |  |  |  |  |
| NC(=O)C[C@H](N)C(=O)O [Asn, Asparagine] | higher | higher |  |  |  |  |  |  |  |  |
| NCC(=O)O [Gly, Glycine] | higher | higher |  |  |  |  |  |  |  |  |
| [Cl][Mn][Cl] [Mn, MnCl2] | higher | higher |  |  |  |  |  |  |  |  |
| NC(=O)c1ccc[n+]([C@@H]2O[C@H](CO)[C@@H](O)[C@H]2O)c1 [NR, Nicotinamide riboside] | higher | higher | higher | higher | higher | higher | higher | higher | higher | similar |
| N[C@@H](CO)C(=O)O [Ser, Serine] | higher | higher |  |  |  |  |  |  |  |  |
| O=c1oc2cc(O)ccc2c2ccc(O)cc12 [UroA, urolithin A (3,8-dihydroxyurolithin)] | higher | higher |  |  |  |  |  |  |  |  |
| Vitamin B12 | higher | higher | higher | higher | higher |  | higher | higher | higher | higher |
